{"source": "patent US6534447B1", "about": "“Herbicidal pyridine compounds” (BASF Aktiengesellschaft, priority 1999, dated 2003)", "type_in_all_cases": "in vivo", "key": {"[1]": {"tested_on": "Zea mays (ZEAMX, maize)", "assay": "Pre-emergence herbicidal evaluation (crop)", "settings": "3 weeks after treatment", "text": "(§1) The pre-emergence herbicidal activity of the compounds of the present invention is exemplified by the following test in which the seeds of a variety of monocotyledonous and dicotyledonous plants are seperately mixed with potting soil and planted on top of approximately one inch of soil in separate post. After planting, the pots are sprayed with the selected aqueous acetone solution. containing test compound in sufficient quantity to provide the equivalent of about 0.025 to 0.4 kg per hectare of test compound per pot. The treated pots are then placed on greenhouse benches, watered and cared for in accordance with conventional greenhouse procedures. From 3 weeks after treatment, the tests are terminated and each pot is examined and rated according to the rating system set forth below. [table] [table]"}, "[2]": {"tested_on": "Glycine max (GLXMA, soyabeans)", "assay": "Pre-emergence herbicidal evaluation (crop)", "settings": "3 weeks after treatment", "text": "as §1"}, "[3]": {"tested_on": "Triticum aestivum (TRZAW, winter wheat)", "assay": "Pre-emergence herbicidal evaluation (crop)", "settings": "3 weeks after treatment", "text": "as §1"}, "[4]": {"tested_on": "Alopecurus myosuroides (ALOMY, black grass)", "assay": "Pre-emergence herbicidal evaluation", "settings": "3 weeks after treatment", "text": "as §1"}, "[5]": {"tested_on": "Abutilon theophrasti (ABUTH, velvetleaf)", "assay": "Pre-emergence herbicidal evaluation", "settings": "3 weeks after treatment", "text": "as §1"}, "[6]": {"tested_on": "Stellaria media (STEME, chickweed)", "assay": "Pre-emergence herbicidal evaluation", "settings": "3 weeks after treatment", "text": "as §1"}, "[7]": {"tested_on": "Ipomoea hederacea (IPOHE, morning glory)", "assay": "Pre-emergence herbicidal evaluation", "settings": "3 weeks after treatment", "text": "as §1"}, "[8]": {"tested_on": "Setaria viridis (SETVI, green foxtail)", "assay": "Pre-emergence herbicidal evaluation", "settings": "3 weeks after treatment", "text": "as §1"}, "[9]": {"tested_on": "Galium aparine (GALAP, cleaver)", "assay": "Pre-emergence herbicidal evaluation", "settings": "3 weeks after treatment", "text": "as §1"}, "[10]": {"tested_on": "Matricaria inodora (MATIN, mayweed)", "assay": "Pre-emergence herbicidal evaluation", "settings": "3 weeks after treatment", "text": "as §1"}, "[11]": {"tested_on": "Echinochloa grus galli (ECHCG, barnyard grass)", "assay": "Pre-emergence herbicidal evaluation", "settings": "3 weeks after treatment", "text": "as §1"}, "[12]": {"tested_on": "Alopecurus myosuroides (ALOMY, black grass)", "assay": "Post-emergence herbicidal evaluation", "settings": "3 weeks after treatment", "protocol": "(§2) These acetone solutions are diluted with water and the resulting formulations applied at dosage levels equivalent of about 0.025 to 0.4 kg per hectare of test compound per pot. After spraying the plants are placed on greenhouse benches and are cared for in the usual manner, commensurate with conventional greenhouse practices. From 3 weeks after treatment, the seedling plants are examined and rated according to the rating system provided above. A rating 0 indicates growth as untreated control, a rating 9 indicates death."}, "[13]": {"tested_on": "Abutilon theophrasti (ABUTH, velvetleaf)", "assay": "Post-emergence herbicidal evaluation", "settings": "3 weeks after treatment", "protocol": "as §2"}, "[14]": {"tested_on": "Stellaria media (STEME, chickweed)", "assay": "Post-emergence herbicidal evaluation", "settings": "3 weeks after treatment", "protocol": "as §2"}, "[15]": {"tested_on": "Ipomoea hederacea (IPOHE, morning glory)", "assay": "Post-emergence herbicidal evaluation", "settings": "3 weeks after treatment", "protocol": "as §2"}, "[16]": {"tested_on": "Setaria viridis (SETVI, green foxtail)", "assay": "Post-emergence herbicidal evaluation", "settings": "3 weeks after treatment", "protocol": "as §2"}, "[17]": {"tested_on": "Galium aparine (GALAP, cleaver)", "assay": "Post-emergence herbicidal evaluation", "settings": "3 weeks after treatment", "protocol": "as §2"}, "[18]": {"tested_on": "Matricaria inodora (MATIN, mayweed)", "assay": "Post-emergence herbicidal evaluation", "settings": "3 weeks after treatment", "protocol": "as §2"}, "[19]": {"tested_on": "Echinochloa grus galli (ECHCG, barnyard grass)", "assay": "Post-emergence herbicidal evaluation", "settings": "3 weeks after treatment", "protocol": "as §2"}, "[20]": {"tested_on": "Dolium multiflorum (LOLMU, ryegrass)", "assay": "Post-emergence herbicidal evaluation", "settings": "rate 0.100 kg/ha, 3 weeks after treatment", "protocol": "as §2"}}, "data": [{"smiles": "Cc1cc(OCCSC(F)(F)F)nc(Oc2ccnc(C(F)(F)F)c2)c1", "note": "[Example 51]", "values": [{"measurement": "ZEAMX rating", "setting": "[1]; rate 0.025 kg/ha", "value": "3 (3 - Moderate effect)"}, {"measurement": "ZEAMX rating", "setting": "[1]; rate 0.100 kg/ha", "value": "4 (4 - Injury)"}, {"measurement": "ZEAMX rating", "setting": "[1]; rate 0.400 kg/ha", "value": "5 (5 - Definite injury)"}, {"measurement": "GLXMA rating", "setting": "[2]; rate 0.025 kg/ha", "value": "4 (4 - Injury)"}, {"measurement": "GLXMA rating", "setting": "[2]; rate 0.100 kg/ha", "value": "5 (5 - Definite injury)"}, {"measurement": "GLXMA rating", "setting": "[2]; rate 0.400 kg/ha", "value": "6 (6 - Herbicidal effect)"}, {"measurement": "TRZAW rating", "setting": "[3]; rate 0.025 kg/ha", "value": "2 (2 - Slight effect)"}, {"measurement": "TRZAW rating", "setting": "[3]; rate 0.100 kg/ha", "value": "4 (4 - Injury)"}, {"measurement": "TRZAW rating", "setting": "[3]; rate 0.400 kg/ha", "value": "6 (6 - Herbicidal effect)"}, {"measurement": "ALOMY rating", "setting": "[4]; rate 0.025 kg/ha", "value": "8 (8 - Approaching complete kill)"}, {"measurement": "ALOMY rating", "setting": "[4]; rate 0.100 kg/ha", "value": "8 (8 - Approaching complete kill)"}, {"measurement": "ALOMY rating", "setting": "[4]; rate 0.400 kg/ha", "value": "8 (8 - Approaching complete kill)"}, {"measurement": "ABUTH rating", "setting": "[5]; rate 0.025 kg/ha", "value": "9 (9 - Complete kill)"}, {"measurement": "ABUTH rating", "setting": "[5]; rate 0.100 kg/ha", "value": "9 (9 - Complete kill)"}, {"measurement": "ABUTH rating", "setting": "[5]; rate 0.400 kg/ha", "value": "9 (9 - Complete kill)"}, {"measurement": "STEME rating", "setting": "[6]; rate 0.025 kg/ha", "value": "9 (9 - Complete kill)"}, {"measurement": "STEME rating", "setting": "[6]; rate 0.100 kg/ha", "value": "9 (9 - Complete kill)"}, {"measurement": "STEME rating", "setting": "[6]; rate 0.400 kg/ha", "value": "9 (9 - Complete kill)"}, {"measurement": "IPOHE rating", "setting": "[7]; rate 0.025 kg/ha", "value": "9 (9 - Complete kill)"}, {"measurement": "IPOHE rating", "setting": "[7]; rate 0.100 kg/ha", "value": "9 (9 - Complete kill)"}, {"measurement": "IPOHE rating", "setting": "[7]; rate 0.400 kg/ha", "value": "9 (9 - Complete kill)"}, {"measurement": "SETVI rating", "setting": "[8]; rate 0.025 kg/ha", "value": "8 (8 - Approaching complete kill)"}, {"measurement": "SETVI rating", "setting": "[8]; rate 0.100 kg/ha", "value": "8 (8 - Approaching complete kill)"}, {"measurement": "SETVI rating", "setting": "[8]; rate 0.400 kg/ha", "value": "9 (9 - Complete kill)"}, {"measurement": "GALAP rating", "setting": "[9]; rate 0.025 kg/ha", "value": "8 (8 - Approaching complete kill)"}, {"measurement": "GALAP rating", "setting": "[9]; rate 0.100 kg/ha", "value": "8 (8 - Approaching complete kill)"}, {"measurement": "GALAP rating", "setting": "[9]; rate 0.400 kg/ha", "value": "8 (8 - Approaching complete kill)"}, {"measurement": "MATIN rating", "setting": "[10]; rate 0.025 kg/ha", "value": "8 (8 - Approaching complete kill)"}, {"measurement": "MATIN rating", "setting": "[10]; rate 0.100 kg/ha", "value": "9 (9 - Complete kill)"}, {"measurement": "MATIN rating", "setting": "[10]; rate 0.400 kg/ha", "value": "9 (9 - Complete kill)"}, {"measurement": "ECHCG rating", "setting": "[11]; rate 0.025 kg/ha", "value": "7 (7 - Good herbicidal effect)"}, {"measurement": "ECHCG rating", "setting": "[11]; rate 0.100 kg/ha", "value": "9 (9 - Complete kill)"}, {"measurement": "ECHCG rating", "setting": "[11]; rate 0.400 kg/ha", "value": "9 (9 - Complete kill)"}, {"measurement": "ALOMY rating", "setting": "[12]; rate 0.025 kg/ha", "value": "4 (4 - Injury)"}, {"measurement": "ALOMY rating", "setting": "[12]; rate 0.100 kg/ha", "value": "7 (7 - Good herbicidal effect)"}, {"measurement": "ALOMY rating", "setting": "[12]; rate 0.400 kg/ha", "value": "8 (8 - Approaching complete kill)"}, {"measurement": "ABUTH rating", "setting": "[13]; rate 0.025 kg/ha", "value": "7 (7 - Good herbicidal effect)"}, {"measurement": "ABUTH rating", "setting": "[13]; rate 0.100 kg/ha", "value": "8 (8 - Approaching complete kill)"}, {"measurement": "ABUTH rating", "setting": "[13]; rate 0.400 kg/ha", "value": "8 (8 - Approaching complete kill)"}, {"measurement": "STEME rating", "setting": "[14]; rate 0.025 kg/ha", "value": "8 (8 - Approaching complete kill)"}, {"measurement": "STEME rating", "setting": "[14]; rate 0.100 kg/ha", "value": "9 (9 - Complete kill)"}, {"measurement": "STEME rating", "setting": "[14]; rate 0.400 kg/ha", "value": "9 (9 - Complete kill)"}, {"measurement": "IPOHE rating", "setting": "[15]; rate 0.025 kg/ha", "value": "9 (9 - Complete kill)"}, {"measurement": "IPOHE rating", "setting": "[15]; rate 0.100 kg/ha", "value": "9 (9 - Complete kill)"}, {"measurement": "IPOHE rating", "setting": "[15]; rate 0.400 kg/ha", "value": "9 (9 - Complete kill)"}, {"measurement": "SETVI rating", "setting": "[16]; rate 0.025 kg/ha", "value": "8 (8 - Approaching complete kill)"}, {"measurement": "SETVI rating", "setting": "[16]; rate 0.100 kg/ha", "value": "9 (9 - Complete kill)"}, {"measurement": "SETVI rating", "setting": "[16]; rate 0.400 kg/ha", "value": "9 (9 - Complete kill)"}, {"measurement": "GALAP rating", "setting": "[17]; rate 0.025 kg/ha", "value": "6 (6 - Herbicidal effect)"}, {"measurement": "GALAP rating", "setting": "[17]; rate 0.100 kg/ha", "value": "9 (9 - Complete kill)"}, {"measurement": "GALAP rating", "setting": "[17]; rate 0.400 kg/ha", "value": "9 (9 - Complete kill)"}, {"measurement": "MATIN rating", "setting": "[18]; rate 0.025 kg/ha", "value": "4 (4 - Injury)"}, {"measurement": "MATIN rating", "setting": "[18]; rate 0.100 kg/ha", "value": "6 (6 - Herbicidal effect)"}, {"measurement": "MATIN rating", "setting": "[18]; rate 0.400 kg/ha", "value": "8 (8 - Approaching complete kill)"}, {"measurement": "ECHCG rating", "setting": "[19]; rate 0.025 kg/ha", "value": "9 (9 - Complete kill)"}, {"measurement": "ECHCG rating", "setting": "[19]; rate 0.100 kg/ha", "value": "9 (9 - Complete kill)"}, {"measurement": "ECHCG rating", "setting": "[19]; rate 0.400 kg/ha", "value": "9 (9 - Complete kill)"}, {"measurement": "LOLMU rating", "setting": "[20]", "value": "8 (8 - Approaching complete kill)"}]}]}
